In patent US20240065302A1, “SWEETENER COMPOSITIONS COMPRISING MOGROSIDES AND USES THEREOF” (Firmenich Incorporated, priority 2021, published 2024):

Columns and labels:
Assay type in all cases: in vivo, human
[1] = Additional sensory testing for lemon-flavored (lemon-lime) beverage (panel of flavorists); conditions: 600 ppm mogrosides, in-mouth, 0 to 10 scale
Experimental: (§1) A panel of flavorists at three locations evaluated lemon-lime beverage various mogrosides at a concentration of 600 ppm mogrosides for in-mouth attributes (peak sweetness, upfront sweetness, bitterness, and mouthfeel/thickness) and aftertaste attributes (sweet tastle linger), on a 0 to 10 scale. The in-mouth attributes were evaluated while holding the sample in the mouth, while the aftertaste attributes were evaluated after expectoration.

[2] = Additional sensory testing for vanilla milk (panel of flavorists); conditions: 400 ppm mogrosides, in-mouth, 0 to 10 scale
Experimental: as §1, with “vanilla milk containing” for “lemon-lime beverage”, “400” for “600”, “expectoration. The data was analyzed using Duncan's new multiple range test and the scores are provided in the data below in parentheses.” for “expectoration.”

[3] = Expert panelists' comparison of mogrosides with stevia; conditions: with respect to Examples 4 and 5 (so in the source)
Experimental: as §1
as §1, with “vanilla milk containing” for “lemon-lime beverage”, “400” for “600”, “expectoration. The data was analyzed using Duncan's new multiple range test and the scores are provided in the data below in parentheses.” for “expectoration.”

[4] = Sensory testing for apple drink (panel of volunteers); conditions: for Bitterness / Delayed Sweetness / Global Flavor Intensity / Sweetness / Thickness/Body: in-mouth, normalized to Reb M
Experimental: (§2) A panel of volunteers evaluated siratose for in-mouth attributes (sweetness, delayed sweetness, sourness, bitterness, global flavor intensity, thickness/body, and astringence) and aftertaste (AT) attributes (lingering sweetness, overall off-taste intensity, licorice off-tast, bitterness off-taste, and mouth coating) on a 10-point scale. Two replicate session were conducted, with a 20 minute break between sessions. There was a 90 second delay between samples within a session. Panelists evaluated all samples in a first session and evaluated the samples again a second time in a second session. Control samples of Rebaudioside M (Reb M) were evaluated during all sessions as a control. Mogroside V was also evaluated and sensory data for mogroside V is provided.
(§3) Data analysis was performed using 2-way analysis of variance (ANOVA) with interaction using Tukey's HSD test. The data was normalized for each attribute according to average scores for Reb M.

[5] = Sensory testing for lemon-lime carbonated soft drink (panel of volunteers)
Experimental: as §2, §3
A panel of volunteers evaluated the siratose-containing lemon-lime carbonated soft drink for in-mouth attributes and aftertaste attributes according to the methods described in Example 1 above.

[6] = Sensory testing for sparkling orange beverage (panel of volunteers)
Experimental: as §2, §3
A panel of volunteers evaluated a sparkling orange beverage containing siratose for in-mouth attributes and aftertaste attibutes according to the methods described in Example 1 above.

[7] = Sensory testing for vanilla milk (panel of volunteers); conditions: for Licorice Aftertaste / Lingering Sweetness / Mouth Coating / Overall Off-Taste: aftertaste
Experimental: as §2, §3
A panel of volunteers evaluated vanilla milk containing siratose for in-mouth attributes and aftertaste attributes according to the methods described in Example 1 above.

[8] = 250 ppm, aftertaste, 10-point scale
[9] = 500 ppm, aftertaste, 10-point scale
[10] = 600 ppm, aftertaste, 10-point scale, normalized
[11] = 600 ppm, in-mouth, 10-point scale, normalized
[12] = 250 ppm, aftertaste, 10-point scale, normalized
[13] = 250 ppm, in-mouth, 10-point scale, normalized
[14] = 200 ppm, 10-point scale, normalized
[15] = 200 ppm, in-mouth, 10-point scale, normalized
[16] = 400 ppm, 10-point scale, normalized
[17] = 400 ppm, in-mouth, 10-point scale, normalized

Which “Peak Sweetness” value [1] does the source give for `C[C@H](CC[C@@H](O[C@@H]1O[C@H](CO[C@@H]2O[C@H](CO)[C@@H](O)[C@H](O)[C@H]2O)[C@@H](O)[C@H](O)[C@H]1O[C@@H]1O[C@H](CO)[C@@H](O)[C@H](O)[C@H]1O)C(C)(C)O)[C@H]1CC[C@@]2(C)[C@@H]3CC=C4[C@@H](CC[C@H](O[C@@H]5O[C@H](CO)[C@@H](O)[C@H](O)[C@H]5O)C4(C)C)[C@]3(C)[C@H](O)C[C@]12C` [Siamenoside I] here?
Its value is 6.571 (b)_.

And the “Peak Sweetness” value [2]?
Its value is 7.375 (a)_.

What about the “Aftertaste and mouthfeel compared with stevia (in words)” value [3] of the same molecule?
The value was “lower licorice aftertaste and lower bitter aftertaste as compared with stevia while having a better mouthfeel”.

For `C[C@H](CC[C@@H](O[C@@H]1O[C@H](CO[C@@H]2O[C@H](CO)[C@@H](O)[C@H](O)[C@H]2O)[C@@H](O)[C@H](O)[C@H]1O[C@@H]1O[C@H](CO)[C@@H](O)[C@H](O)[C@H]1O)C(C)(C)O)[C@H]1CC[C@@]2(C)[C@@H]3CC=C4[C@@H](CC[C@H](O[C@@H]5O[C@H](CO)[C@@H](O[C@@H]6O[C@H](CO)[C@@H](O)[C@H](O)[C@H]6O)[C@H](O)[C@H]5O)C4(C)C)[C@]3(C)[C@H](O)C[C@]12C` [Isomogroside V], which “Aftertaste and mouthfeel compared with stevia (in words)” value [3] is on record?
The value was “lower licorice aftertaste and lower bitter aftertaste as compared with stevia while having a better mouthfeel”.

For `C[C@H](CC[C@@H](O[C@@H]1O[C@H](CO[C@H]2O[C@H](CO)[C@@H](O)[C@H](O)[C@H]2O)[C@@H](O)[C@H](O)[C@H]1O[C@@H]1O[C@H](CO)[C@@H](O)[C@H](O)[C@H]1O)C(C)(C)O)[C@H]1CC[C@@]2(C)[C@]3(C)CC=C4[C@@H](CC[C@H](O[C@@H]5O[C@H](CO)[C@@H](O)[C@H](O)[C@H]5O)C4(C)C)[C@]3(C)[C@H](O)C[C@]12C` [siratose], which “Sensory profile compared with mogroside V (in words)” value [4] is on record?
The value was “sweeter, less bitter, and have a higher global flavor intensity than mogroside V, while having a lower overall off taste, licorice aftertaste, and bitterness aftertaste”.

What about the “Bitterness Aftertaste” value [4, 8] of the same molecule?
The value was 1.1.

And the “Licorice Aftertaste” value [4, 8]?
Its value is 1.8.

What about the “Lingering Sweetness” value [4, 8] of the same molecule?
Its value is 3.4.

What about the “Overall Off-Taste” value [4, 8] of the same molecule?
The value was 2.8.

What about the Bitterness ([4]; 250 ppm, 10-point scale) of the same molecule?
Its Bitterness is 1.5.

And the “Delayed Sweetness” value ([4]; 250 ppm, 10-point scale)?
The value was 2.2.

What about the “Global Flavor Intensity” value ([4]; 250 ppm, 10-point scale) of the same molecule?
The value was 3.7.

What about the Sweetness ([4]; 250 ppm, 10-point scale) of the same molecule?
Its Sweetness is 4.2.

What about the Thickness/Body ([4]; 250 ppm, 10-point scale) of the same molecule?
Its Thickness/Body is 1.5.

And the “Licorice Aftertaste” value [4, 9]?
Its value is 2.8.

And the “Lingering Sweetness” value [4, 9]?
Its value is 5.2.

What about the “Mouth Coating” value [4, 9] of the same molecule?
Its value is 2.6.

What about the “Overall Off-Taste” value [4, 9] of the same molecule?
The value was 4.0.

And the Bitterness ([4]; 500 ppm, 10-point scale)?
The Bitterness was 1.7.

What about the “Delayed Sweetness” value ([4]; 500 ppm, 10-point scale) of the same molecule?
The value was 3.4.

What about the “Global Flavor Intensity” value ([4]; 500 ppm, 10-point scale) of the same molecule?
Its value is 4.6.

And the Sweetness ([4]; 500 ppm, 10-point scale)?
Its Sweetness is 5.9.

And the Thickness/Body ([4]; 500 ppm, 10-point scale)?
Its Thickness/Body is 1.8.

What about the “Sensory profile compared with control Reb M (in words)” value ([4]; same concentration) of the same molecule?
Its value is “high sweetness score and similar in-mouth and aftertaste attributes as the control Reb M samples”.

What about the “Sensory profile compared with mogroside V (in words)” value [5] of the same molecule?
The value was “higher sweetness and global flavor intensity as compared to mogroside V while having a similar aftertaste profile”.

What about the “Bitterness Aftertaste” value [5, 10] of the same molecule?
The value was 1.3.

And the “Licorice Aftertaste” value [5, 10]?
The value was 2.3.

And the “Lingering Sweetness” value [5, 10]?
Its value is 4.3.

And the “Overall Off-Taste” value [5, 10]?
Its value is 3.9.

What about the Bitterness [5, 11] of the same molecule?
The Bitterness was 2.1.

What about the “Delayed Sweetness” value [5, 11] of the same molecule?
Its value is 3.9.

And the “Global Flavor Intensity” value [5, 11]?
Its value is 4.5.

What about the Sweetness [5, 11] of the same molecule?
Its Sweetness is 6.0.

And the “Sensory profile compared with control Reb M (in words)” value ([5]; same concentration)?
Its value is “high sweetness score and similar in-mouth and aftertaste attributes as the control Reb M samples”.

What about the “Off-taste and mouth coating compared with Reb M (in words)” value [6] of the same molecule?
Its value is “slightly lower off-taste and higher mouth coating than Reb M”.

And the “Sweetness compared with mogroside V (in words)” value [6]?
Its value is “greater sweetness than mogroside V”.

And the “Licorice Aftertaste” value [6, 12]?
The value was 2.9.

What about the “Lingering Sweetness” value [6, 12] of the same molecule?
The value was 4.4.

What about the “Mouth Coating” value [6, 12] of the same molecule?
Its value is 3.0.

What about the “Overall Off-Taste” value [6, 12] of the same molecule?
The value was 3.1.

What about the “Delayed Sweetness” value [6, 13] of the same molecule?
The value was 4.1.

And the Sweetness [6, 13]?
Its Sweetness is 5.8.

And the “Sweetness and delayed sweetness compared with control Reb M (in words)” value ([6]; same concentration)?
The value was “high sweetness score and an increased delayed sweetness compared to the control Reb M samples”.

And the “Sensory profile compared with Reb M (in words)” value ([7]; 200 ppm and 400 ppm)?
Its value is “improved sweetness as comparted to Reb M”.

And the “Sensory profile compared with mogroside V (in words)” value ([7]; 200 ppm and 400 ppm)?
Its value is “sweeter than mogroside V at both 200 ppm and 400 ppm, while having a similar aftertaste profile”.

And the “Licorice Aftertaste” value [7, 14]?
The value was 1.0.

What about the “Lingering Sweetness” value [7, 14] of the same molecule?
Its value is 3.1.

And the “Mouth Coating” value [7, 14]?
Its value is 3.2.

What about the “Overall Off-Taste” value [7, 14] of the same molecule?
The value was 1.9.

What about the Astringence [7, 15] of the same molecule?
The Astringence was 0.5.

What about the “Delayed Sweetness” value [7, 15] of the same molecule?
The value was 1.7.

And the Fattiness [7, 15]?
The Fattiness was 3.1.

What about the Sourness [7, 15] of the same molecule?
Its Sourness is 0.5.

And the Sweetness [7, 15]?
The Sweetness was 5.6.

And the “Licorice Aftertaste” value [7, 16]?
The value was 1.1.

What about the “Lingering Sweetness” value [7, 16] of the same molecule?
Its value is 4.0.

What about the “Mouth Coating” value [7, 16] of the same molecule?
The value was 0.8.

What about the “Overall Off-Taste” value [7, 16] of the same molecule?
The value was 2.4.

And the Astringence [7, 17]?
Its Astringence is 0.5.

And the Bitterness [7, 17]?
The Bitterness was 0.6.

What about the “Delayed Sweetness” value [7, 17] of the same molecule?
The value was 2.3.

And the Fattiness [7, 17]?
The Fattiness was 3.6.

And the “Global Flavor Intensity” value [7, 17]?
The value was 5.1.

And the Sourness [7, 17]?
Its Sourness is 0.5.

What about the Sweetness [7, 17] of the same molecule?
Its Sweetness is 7.1.

And the “Aftertaste and mouthfeel compared with stevia (in words)” value [3]?
The value was “lower licorice aftertaste and lower bitter aftertaste as compared with stevia while having a better mouthfeel”.

Which Bitterness [2] does the source give for Isomogroside IVE here?
The Bitterness was 1.313.

And the “Aftertaste and mouthfeel compared with stevia (in words)” value [3]?
Its value is “lower licorice aftertaste and lower bitter aftertaste as compared with stevia while having a better mouthfeel”.
